Results reported in patent US4048431A, “Alkylated derivatives of antibiotic BM123γ” (American Cyanamid Company, priority 1975, dated 1977).

Tested on: Escherichia coli US311
Test: in vivo protection of mice against lethal Escherichia coli US311 infection (single subcutaneous dose)
Set-up: species or system Escherichia coli US311 in Carworth Farms CF-1 mice
Conditions: Carworth Farms CF-1 mice, about 20 gm., infected intraperitoneally with lethal dose of E. coli US311 (10^-3 TSP dilution of 5 hour TSP blood culture)
Experimental: These new substances show high in vivo antibacterial activity in mice against Escherichia coli US311 when administered by a single subcutaneous dose to groups of Carworth Farms CF-1 mice, weight about 20 gm., infected intraperitoneally with a lethal dose of this bacteria in a 10^- 3 trypticase soy broth TSP dilution of a 5 hour TSP blood culture. In Table VI below is set forth the in vivo activity of typical products of this invention (prepared from the indicated carbonyl reagents) against Escherichia coli US311 in mice. The activity is expressed in terms of the ED50 or the dose in mg./kg. of body weight required to protect 50% of the mice against E. coli.

| Substance | ED50 (dose required to protect 50% of the mice against E. coli) |
| --- | --- |
| 2-cyclohexenyl-BM123γ | 0.25 mg./kg. of body weight |
| 2-cyclohexylcyclohexyl-BM123γ | 0.75 mg./kg. of body weight |
| 2-cyclopentylcyclopentyl-BM123γ | 0.37 mg./kg. of body weight |
| 2-ethyl-2-(3,4-dimethoxyphenyl)ethyl-BM123γ | 1.0 mg./kg. of body weight |
| 2-ethyl-2-butenyl-BM123γ | 0.18 mg./kg. of body weight |
| 2-ethylcyclohexyl-BM123γ | 0.19 mg./kg. of body weight |
| 2-ethylcyclopentyl-BM123γ | 0.12 mg./kg. of body weight |
| 2-ethylhexyl-BM123γ | 0.37 mg./kg. of body weight |
| 2-ethylidenecyclohexyl-BM123γ | 0.12 mg./kg. of body weight |
| 2-methylcyclopentyl-BM123γ | 0.25 mg./kg. of body weight |
| 2-phenylcyclohexyl-BM123γ | 0.38 mg./kg. of body weight |
| 2-phenylethyl-BM123γ | 0.18 mg./kg. of body weight |
| 3,3-dimethylcyclohexen(-4-)yl-BM123γ | 0.37 mg./kg. of body weight |
| 3,5-dimethylcyclohexyl-BM123γ | < 0.12 mg./kg. of body weight |
| 3-methyl-6-isopropylcyclohexyl-BM123γ | 0.38 mg./kg. of body weight |
| 3-methylcyclopentyl-BM123γ | 0.25 mg./kg. of body weight |
| 3-quinuclidinyl-BM123γ | 0.39 mg./kg. of body weight |
| 3-tert-pentylcyclopentyl-BM123γ | 0.5 mg./kg. of body weight |
| 4-t-butylcyclohexyl-BM123γ | 0.12 mg./kg. of body weight |
| 4-tetrahydrothiopyranyl-BM123γ | 0.38 mg./kg. of body weight |

| Substance | ED50 (dose required to protect 50% of the mice against E. coli) |
| --- | --- |
| 5-methoxyl-2-tetralyl-BM123γ | 0.18 mg./kg. of body weight |
| (1-methylcyclo-3-hexenyl)methyl-BM123γ | 0.18 mg./kg. of body weight |
| (2-carboxy-1-carboxymethyl)ethyl-BM123γ | 0.5 mg./kg. of body weight |
| adamantyl-2-BM123γ | 0.25 mg./kg. of body weight |
| bicyclo[3.2.1]octanyl-2-BM123γ | < 0.25 mg./kg. of body weight |
| cyclobutyl-BM123γ | 0.38 mg./kg. of body weight |
| cycloheptyl-BM123γ | 0.3 mg./kg. of body weight |
| cyclohexyl-BM123γ | 0.75 mg./kg. of body weight |
| cyclononyl-BM123γ | 0.18 mg./kg. of body weight |
| cyclooctyl-BM123γ | 0.18 mg./kg. of body weight |
| cyclopentyl-BM123γ | 0.25 mg./kg. of body weight |
| decahydro-1-methyl-2-naphthyl-BM123γ | 0.25 mg./kg. of body weight |
| decahydro-3-methyl-2-naphthyl-BM123γ | 0.37 mg./kg. of body weight |
| ethyl-BM123γ | 0.38 mg./kg. of body weight |
| isopropyl-BM123γ | < 0.12 mg./kg. of body weight |
| methyl-BM123γ | 0.12 mg./kg. of body weight |
| norbornyl-BM123γ | 0.18 mg./kg. of body weight |
| trans-2-methyl-2-butenyl-BM123γ | 0.18 mg./kg. of body weight |
| trans-2-methyl-2-pentenyl-BM123γ | 0.18 mg./kg. of body weight |
